# Data: PubChem BioAssay AID1845207 (Molecular Pharmacology Branch, DTP, NCI, 2023)
# System: NCI-H1876 tumor spheroid viability
# Assay: Anticancer human tumor NCI-H1876 cell line growth inhibition;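 note: spheroids exposed to compounds for seven days before the viability read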;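 for viability, T/C: percent of DMSO vehicle control viability so 100% = vehicle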
# Details: spheroids with HUVEC and MSC; for IC50: curve of first compound; for viability, T/C: stronger effect = lower value
# Method in brief: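 Complex tumor spheroids combined malignant cells with endothelial cells and mesenchymal stem cells. DNA-damaging drugs and DNA repair inhibitors were tested alone and in combination, at half-log dilutions down from clinical Cmax (top 10 microM if Cmax unknown), 0.25% DMSO final.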
smiles,measurement,setting,value
CNCc1ccc(-c2cc(-c3nc(-c4ccc(S(=O)(=O)C(C)C)cc4)cnc3N)on2)cc1 + Cn1nnc2c(C(N)=O)ncn2c1=O,IC50,second compound 1 µM,121 nM
same,IC50,second compound 3.16 µM,83.7 nM
same,IC50,second compound 10 µM,92.3 nM
same,IC50,second compound 31.6 µM,89.3 nM
same,IC50,second compound 100 µM,< 9.49 nM
same,"viability, T/C","second compound 1 µM, first compound 0.00949 µM",82%
same,"viability, T/C","second compound 1 µM, first compound 0.03 µM",70.7%
same,"viability, T/C","second compound 1 µM, first compound 0.0949 µM",54.9%
same,"viability, T/C","second compound 1 µM, first compound 0.3 µM",33.6%
same,"viability, T/C","second compound 1 µM, first compound 0.949 µM",12.6%
same,"viability, T/C","second compound 1 µM, first compound 3 µM",0.35%
same,"viability, T/C","second compound 3.16 µM, first compound 0.00949 µM",95.4%
same,"viability, T/C","second compound 3.16 µM, first compound 0.03 µM",54.9%
same,"viability, T/C","second compound 3.16 µM, first compound 0.0949 µM",55.4%
same,"viability, T/C","second compound 3.16 µM, first compound 0.3 µM",29.7%
same,"viability, T/C","second compound 3.16 µM, first compound 0.949 µM",15.2%
same,"viability, T/C","second compound 3.16 µM, first compound 3 µM",0.44%
same,"viability, T/C","second compound 10 µM, first compound 0.00949 µM",86.9%
same,"viability, T/C","second compound 10 µM, first compound 0.03 µM",65.2%
same,"viability, T/C","second compound 10 µM, first compound 0.0949 µM",54%
same,"viability, T/C","second compound 10 µM, first compound 0.3 µM",29.9%
same,"viability, T/C","second compound 10 µM, first compound 0.949 µM",13.1%
same,"viability, T/C","second compound 10 µM, first compound 3 µM",11%
same,"viability, T/C","second compound 31.6 µM, first compound 0.00949 µM",82%
same,"viability, T/C","second compound 31.6 µM, first compound 0.03 µM",57.8%
same,"viability, T/C","second compound 31.6 µM, first compound 0.0949 µM",58.2%
same,"viability, T/C","second compound 31.6 µM, first compound 0.3 µM",30.1%
same,"viability, T/C","second compound 31.6 µM, first compound 0.949 µM",51.8%
same,"viability, T/C","second compound 31.6 µM, first compound 3 µM",45.7%
same,"viability, T/C","second compound 100 µM, first compound 0.00949 µM",50.8%
same,"viability, T/C","second compound 100 µM, first compound 0.03 µM",43%
same,"viability, T/C","second compound 100 µM, first compound 0.0949 µM",36.5%
same,"viability, T/C","second compound 100 µM, first compound 0.3 µM",20.9%
same,"viability, T/C","second compound 100 µM, first compound 0.949 µM",47.9%
same,"viability, T/C","second compound 100 µM, first compound 3 µM",0.26%
COc1ccc([C@@H](O)c2cc(-c3ncnc4cc(N5CCOCC5)ccc34)c(F)cc2Cl)nn1 + CC[C@@]1(O)C(=O)OCc2c1cc1n(c2=O)Cc2cc3c(CN(C)C)c(O)ccc3nc2-1,IC50,second compound 0.003 µM,1650 nM
same,IC50,second compound 0.00949 µM,< 31.6 nM
same,IC50,second compound 0.03 µM,< 31.6 nM
same,IC50,second compound 0.0949 µM,< 31.6 nM
same,IC50,second compound 0.3 µM,< 31.6 nM
same,"viability, T/C","second compound 0.003 µM, first compound 0.0316 µM",88.7%
same,"viability, T/C","second compound 0.003 µM, first compound 0.1 µM",83.7%
same,"viability, T/C","second compound 0.003 µM, first compound 0.316 µM",85.3%
same,"viability, T/C","second compound 0.003 µM, first compound 1 µM",67.1%
same,"viability, T/C","second compound 0.003 µM, first compound 3.16 µM",27.6%
same,"viability, T/C","second compound 0.003 µM, first compound 10 µM",10.9%
same,"viability, T/C","second compound 0.00949 µM, first compound 0.0316 µM",15.9%
same,"viability, T/C","second compound 0.00949 µM, first compound 0.1 µM",15.2%
same,"viability, T/C","second compound 0.00949 µM, first compound 0.316 µM",17.8%
same,"viability, T/C","second compound 0.00949 µM, first compound 1 µM",12.2%
same,"viability, T/C","second compound 0.00949 µM, first compound 3.16 µM",8.75%
same,"viability, T/C","second compound 0.00949 µM, first compound 10 µM",5.67%
same,"viability, T/C","second compound 0.03 µM, first compound 0.0316 µM",3.61%
same,"viability, T/C","second compound 0.03 µM, first compound 0.1 µM",6.14%
same,"viability, T/C","second compound 0.03 µM, first compound 0.316 µM",3.33%
same,"viability, T/C","second compound 0.03 µM, first compound 1 µM",3.01%
same,"viability, T/C","second compound 0.03 µM, first compound 3.16 µM",2.56%
same,"viability, T/C","second compound 0.03 µM, first compound 10 µM",2.82%
same,"viability, T/C","second compound 0.0949 µM, first compound 0.0316 µM",2.02%
same,"viability, T/C","second compound 0.0949 µM, first compound 0.1 µM",2.62%
same,"viability, T/C","second compound 0.0949 µM, first compound 0.316 µM",2.15%
same,"viability, T/C","second compound 0.0949 µM, first compound 1 µM",2.18%
same,"viability, T/C","second compound 0.0949 µM, first compound 3.16 µM",1.69%
same,"viability, T/C","second compound 0.0949 µM, first compound 10 µM",2.92%
same,"viability, T/C","second compound 0.3 µM, first compound 0.0316 µM",1.88%
same,"viability, T/C","second compound 0.3 µM, first compound 0.1 µM",1.98%
same,"viability, T/C","second compound 0.3 µM, first compound 0.316 µM",1.62%
same,"viability, T/C","second compound 0.3 µM, first compound 1 µM",1.27%
same,"viability, T/C","second compound 0.3 µM, first compound 3.16 µM",1.46%
same,"viability, T/C","second compound 0.3 µM, first compound 10 µM",1.93%
